For 23 compounds, IC50 results are on record in patent US10047083B2, “Dihydropyrimidinoisoquinolinones and pharmaceutical compositions thereof for the treatment of inflammatory disorders” (GALAPAGOS NV, priority 2011, dated 2018).

In one experiment the target is T1, GPR84 (Homo sapiens, UniProt Q9NQS5).
T1 construct: expressed in transfected cells; membranes used
T1 sequence (Q9NQS5 whole entry): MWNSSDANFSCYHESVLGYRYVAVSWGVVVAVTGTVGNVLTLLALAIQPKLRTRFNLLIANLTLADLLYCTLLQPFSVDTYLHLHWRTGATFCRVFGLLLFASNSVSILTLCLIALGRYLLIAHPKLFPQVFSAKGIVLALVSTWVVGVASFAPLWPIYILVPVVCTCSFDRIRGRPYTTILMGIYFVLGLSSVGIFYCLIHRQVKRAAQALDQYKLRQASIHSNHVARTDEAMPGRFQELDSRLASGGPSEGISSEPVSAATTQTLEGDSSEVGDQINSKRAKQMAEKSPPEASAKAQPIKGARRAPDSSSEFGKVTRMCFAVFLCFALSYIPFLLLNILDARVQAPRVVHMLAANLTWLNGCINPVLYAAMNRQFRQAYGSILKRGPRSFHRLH
The experiment can be described thus: GTPγS binding assay (GPR84). The format is biochemical. Particulars: membranes from stable cell line over expressing GPR84; 3,3′ di indolylmethane at EC80. Here is the method: 1.1. Cell Based Assay: GTp-γS Binding Assay.
The following assay can be used for determination of GPR84 activation.
The assay is performed in a 96 well plate where the following reagents are added. […] In a last step, 30 μL of a mixture consisting of membranes-GTPγS-SpA beads is added [mixture consists of 20 μg/well membranes derived from stable cell line over expressing GPR84 (membranes are pre-incubated with 0.1 μM GDP for 15 min at 4° C.), 0.1 nM [^35S]GTPγS (Perkin Elmer, NEG030) and 0.5 mg/well PVT-WGA SpA beads (Perkin Elmer, RPNQ0001)]. All components are diluted in assay buffer containing 20 mM HEPES pH 7.4; 5 mM MgCl2; 250 mM NaCl; 0.05% BSA; 75 ug/mL saponin. Reactions are incubated for 90 min at room temperature followed by centrifugation at 2000 rpm during 15 min. Plates are read on a Topcount reader (Perkin Elmer) immediately after centrifugation (readout time, 1 min/well).
`CC(C)(O)CCc1ccc2c(c1)CCn1c-2cc(OC[C@@H]2COCCO2)nc1=O` [Compound 156, 2-((S)-1-[1,4]dioxan-2-ylmethoxy)-9-(3-hydroxy-3-methyl-butyl)-6,7-dihydro-pyrimido[6,1-a]isoquinolin-4-one] had an IC50 of 101 to 500 nM. On the same count and under the same terms, the figure for `CN(c1ccc2c(c1)CCn1c-2cc(OC[C@@H]2COCCO2)nc1=O)C1CCCCC1` [Compound 152, 9-(cyclohexyl-methyl-amino)-2-((S)-1-[1,4]dioxan-2-ylmethoxy)-6,7-dihydro-pyrimido[6,1-a]isoquinolin-4-one] is 501 to 1000 nM; for `Cc1cc(-c2ccc3c(c2)CCn2c-3cc(OCC3COCCO3)nc2=O)ccn1` (centres unmarked) [Compound 65, 2-([1,4]dioxan-2-ylmethoxy)-9-(2-methyl-pyridin-4-yl)-6,7-dihydro-pyrimido[6,1-a]isoquinolin-4-one] it is 501 to 1000 nM; for `N#Cc1ccncc1-c1ccc2c(c1)CCn1c-2cc(OCC2COCCO2)nc1=O` (centres unmarked) [Compound 66, 3-[2-([1,4]dioxan-2-ylmethoxy)-4-oxo-6,7-dihydro-4H-pyrimido[6,1-a]isoquinolin-9-yl]-isonicotinonitrile] it is 101 to 500 nM. Same read-out and setting: next, `O=c1nc(OC[C@@H]2COCCO2)cc2n1CCc1cc(OCC3COC3)ccc1-2` [Compound 163, 2-((S)-1-[1,4]dioxan-2-ylmethoxy)-9-(oxetan-3-ylmethoxy)-6,7-dihydro-pyrimido[6,1-a]isoquinolin-4-one]: 0.01 to 100 nM; `O=c1nc(OC[C@H]2COCCO2)cc2n1CCc1cc(OCc3noc(C4CC4)n3)ccc1-2` [Compound 104, 9-(5-cyclopropyl-[1,2,4]oxadiazol-3-ylmethoxy)-2-((R)-1-[1,4]dioxan-2-ylmethoxy)-6,7-dihydro-pyrimido[6,1-a]isoquinolin-4-one]: 0.01 to 100 nM.

In turn, `N#Cc1cccc(-c2ccc3c(c2)CCn2c-3cc(OCC3COCCO3)nc2=O)c1` (centres unmarked) [Compound 5, 3-[2-([1,4]dioxan-2-ylmethoxy)-4-oxo-6,7-dihydro-4H-pyrimido[6,1-a]isoquinolin-9-yl]-benzonitrile] gave an IC50 of 501 to 1000 nM.

The compound `O=c1nc(OC[C@@H]2COCCO2)cc2n1CCc1cc(CCC3(O)CCCC3)ccc1-2` [Compound 166, 2-((S)-1-[1,4]dioxan-2-ylmethoxy)-9-[2-(1-hydroxy-cyclopentyl)-ethyl]-6,7-dihydro-pyrimido[6,1-a]isoquinolin-4-one] registered an IC50 of 0.01 to 100 nM. Same read-out and setting: next, `CC(C)C(O)CCc1ccc2c(c1)CCn1c-2cc(OC[C@@H]2COCCO2)nc1=O` (stereo partly drawn) [Compound 127, 2-((S)-1-[1,4]dioxan-2-ylmethoxy)-9-(3-hydroxy-4-methyl-pentyl)-6,7-dihydro-pyrimido[6,1-a]isoquinolin-4-one]: 0.01 to 100 nM. The same measure, in the same setting: the figure for `CC(C)(O)C#Cc1ccc2c(c1)CCn1c-2cc(OCC2COCCO2)nc1=O` (centres unmarked) [Compound 55, 2-([1,4]dioxan-2-ylmethoxy)-9-(3-hydroxy-3-methyl-but-1-ynyl)-6,7-dihydro-pyrimido[6,6,1-a]isoquinolin-4-one] is greater than 1000 nM; for `CC(C)(C)CCCOc1ccc2c(c1)CCn1c-2cc(OC[C@@H]2COCCO2)nc1=O` [Compound 141, 9-(4,4-dimethyl-pentyloxy)-2-((S)-1-[1,4]dioxan-2-ylmethoxy)-6,7-dihydro-pyrimido[6,1-a]isoquinolin-4-one] it is 101 to 500 nM. Same read-out and setting: next, `CCCOCCOc1ccc2c(c1)CCn1c-2cc(OC[C@H]2COCCO2)nc1=O` [Compound 172, 2-((R)-1-[1,4]Dioxan-2-ylmethoxy)-9-(2-propoxy-ethoxy)-6,7-dihydro-pyrimido[6,1-a]isoquinolin-4-one]: 101 to 500 nM.

Another experiment concerns human neutrophils. In words: Human neutrophil migration assay (embelin-induced). The format is cell-based. Particulars: neutrophils from human buffy coat, 30 min compound pre-incubation, migration towards embelin at EC80 for 1 h, ATPlite readout, read-out: human neutrophil migration inhibition (Neutrophils). The method, then:
2. Cellular Assays 2.1. Human Neutrophil Migration Assay
The effect of agonists or antagonists for GPR84 can therefore be assayed in a neutrophil migration test. In the neutrophil migration assay, neutrophils, freshly isolated from buffy coats from human volunteers, are treated with a compound for 30 minutes. Subsequently, the neutrophils are transferred to the upper wells of a Corning HTS transwell 96 permeable support system, of which the lower wells are filled with a embelin solution at EC80 (concentration which gives 80% of the activity of GPR84). After 1 h of incubation, migration of the neutrophils towards embelin in the lower compartment can be quantified by measuring the ATP-content of the lower wells using the ATPlite luminescence ATP detection assay system (Perkin Elmer, Cat. No.: 436110).
A human buffy coat is diluted with an equal volume of ice cold DPBS. 20 mL of the diluted buffy coat is gently mixed with 4 mL of ACD buffer (140 mM citric acid, 200 mM sodium citrate and 220 mM dextrose). Then, 12 mL of the 6% dextran/0.9% NaCl solution (15 g dextran T2000 and 2.25 g NaCl dissolved in 250 mL H2O) is added to the mixture and the samples are inverted gently up to 20 times. The total volume was transferred to a new recipient and incubated at room temperature for 1 h for complete separation of the two phases to occur. The yellowish supernatant is then transferred to a clean centrifugation tube and centrifuged for 12 minutes at 1300 rpm and 4° C. After centrifugation, the supernatant is discarded and the remaining cell pellet is rapidly resuspended in 12 mL of ice-cold H2O for red blood cell lysis to occur. After 20 seconds, 4 mL of ice-cold 0.6 M KCl is added. Samples are mixed carefully and centrifuged for 6 minutes at 1300 rpm, 4° C. The supernatant is discarded and the red blood cell lysis procedure is repeated one more time. Subsequently, the cell pellet is resuspended in 4 mL of DPBS and layered over 5 mL of Lymphoprep (Nycomed Pharma, Cat. No.: 1114545) in a 15 mL centrifuge tube. After centrifugation for 12 min at 1300 rpm, 4° C., the supernatant is removed and the cell pellet, containing the neutrophils, is resuspended in 25 mL chemotaxis buffer (RPMI 1640 medium, supplemented with 10 mM HEPES; freshly made for each experiment)
A cell suspension of 8.9×10^6 cells per milliliter is prepared. 20 μL of compound solution in chemotaxis buffer is added to 180 μL cell suspension. The mixture is incubated at 37° C. for 30 minutes with intermediate resuspension of the cells after 15 minutes. Following this, 70 μL cell suspension is transferred to the upper compartment of a Corning HTS transwell 96 permeable support system with 5.0 μm pore size polycarbonate membrane (Corning, Cat. No.: 3387). The receiver well of the transwell system is then filled with 200 μL chemotaxis buffer containing compound and chemotactic agent (embelin). After incubation at 37° C. in 5% CO2 for 1 h, the upper plate of the transwell system is removed and the cell suspension in the receiver plate is transferred to a 96-well V-bottom plate. 50 μL of DPBS is added to the receiver plate to prevent remaining cells from drying out. The V-bottom plate is centrifuged for 6 minutes at 1500 rpm. The supernatant is removed and the cells are resuspended in 50 μL DPBS. The cells are then transferred back to the receiver plate of the transwell system. After this, 100 μL ATPlite solution (Perkin Elmer, Cat. No: 436110) was added to the cells. The plate is incubated for 10 minutes in the dark, while shaking. […] of cell lysate is then transferred to a white 96-well plate and luminescence is measured. The detected luminescent signal is considered as linearely related to the number of cells having migrated from the upper well to the receiver well.
Consider `O=c1nc(OCC2COCCO2)cc2n1CCc1cc(C#CC3CC3)ccc1-2` (centres unmarked) [Compound 30, 9-cyclopropylethynyl-2-([1,4]dioxan-2-ylmethoxy)-6,7-dihydro-pyrimido[6,1-a]isoquinolin-4-one], for which the IC50 lay in the range of 0.01 to 100 nM. On the same count and under the same terms, next, `CC(O)(C#Cc1ccc2c(c1)CCn1c-2cc(OCC2COCCO2)nc1=O)c1ccccc1` (centres unmarked) [Compound 92, 2-([1,4]dioxan-2-ylmethoxy)-9-(3-hydroxy-3-phenyl-but-1-ynyl)-6,7-dihydro-pyrimido[6,1-a]isoquinolin-4-one]: 0.01 to 100 nM; `O=c1nc(OCC2COCCO2)cc2n1CCc1cc(-c3ccc4[nH]ccc4c3)ccc1-2` (centres unmarked) [Compound 22, 2-([1,4]dioxan-2-ylmethoxy)-9-(1H-indol-5-yl)-6,7-dihydro-pyrimido[6,1-a]isoquinolin-4-one]: 0.01 to 100 nM. Still for that read-out and setting: the figure for `O=c1nc(OC[C@@H]2COCCO2)cc2n1CCc1cc(C#CC3CC3)ccc1-2` [Compound 122, 9-cyclopropylethynyl-2-((S)-1-[1,4]dioxan-2-ylmethoxy)-6,7-dihydro-pyrimido[6,1-a]isoquinolin-4-one] is 0.01 to 100 nM; for `Cc1ccc(-c2ccc3c(c2)CCn2c-3cc(OCC3COCCO3)nc2=O)cn1` (centres unmarked) [Compound 35, 2-([1,4]dioxan-2-ylmethoxy)-9-(6-methyl-pyridin-3-yl)-6,7-dihydro-pyrimido[6,1-a]isoquinolin-4-one] it is 101 to 500 nM; for `Cn1ccc2cc(-c3ccc4c(c3)CCn3c-4cc(OCC4COCCO4)nc3=O)ccc21` (centres unmarked) [Compound 34, 2-([1,4]dioxan-2-ylmethoxy)-9-(1-methyl-1H-indol-5-yl)-6,7-dihydro-pyrimido[6,1-a]isoquinolin-4-one] it is 0.01 to 100 nM. The same measure, in the same setting: the figure for `CCCC#Cc1ccc2c(c1)CCn1c-2cc(OCC2COCCO2)nc1=O` (centres unmarked) [Compound 19, 2-([1,4]dioxan-2-ylmethoxy)-9-pent-1-ynyl-6,7-dihydro-pyrimido[6,1-a]isoquinolin-4-one] is 0.01 to 100 nM. Turning to `O=c1nc(OC[C@H]2COCCO2)cc2n1CCc1cc(C#CC3CC3)ccc1-2` [Compound 111, 9-cyclopropylethynyl-2-((R)-1-[1,4]dioxan-2-ylmethoxy)-6,7-dihydro-pyrimido[6,1-a]isoquinolin-4-one], the IC50 lay in the range of 0.01 to 100 nM. Regarding `N#Cc1ccccc1-c1ccc2c(c1)CCn1c-2cc(OCC2COCCO2)nc1=O` (centres unmarked) [Compound 4, 2-[2-([1,4]dioxan-2-ylmethoxy)-4-oxo-6,7-dihydro-4H-pyrimido[6,1-a]isoquinolin-9-yl]-benzonitrile], the IC50 fell in the range of 101 to 500 nM.

On to `COc1ccccc1-c1ccc2c(c1)CCn1c-2cc(OCC2COCCO2)nc1=O` (centres unmarked) [Compound 23, 2-([1,4]dioxan-2-ylmethoxy)-9-(2-methoxy-phenyl)-6,7-dihydro-pyrimido[6,1-a]isoquinolin-4-one], for which the IC50 lay within 101 to 500 nM. The same measure, in the same setting: next, `CN(CC#Cc1ccc2c(c1)CCn1c-2cc(OCC2COCCO2)nc1=O)Cc1ccccc1` (centres unmarked) [Compound 85, 9-[3-(benzyl-methyl-amino)-prop-1-ynyl]-2-([1,4]dioxan-2-ylmethoxy)-6,7-dihydro-pyrimido[6,1-a]isoquinolin-4-one]: 0.01 to 100 nM.
